Measured values from ChEMBL document CHEMBL1212812, “Multi-target spectral moment QSAR versus ANN for antiparasitic drugs against different parasite species” (Bioorg Med Chem, 2010).

The compounds below were run on Plasmodium falciparum (assay: Antimicrobial activity against Plasmodium falciparum).
Type: functional, organism-based

Row | SMILES | IC50 [µM]
1 | CCNCc1cc(Nc2ccnc3cc(Cl)ccc23)ccc1O [DESETHYL AMODIAQUINE] | 73
2 | CCc1nc(N)nc(N)c1Cc1cc(OC)c(OC)c(OC)c1 | 50
3 | CC1=C(O)SC(C)C1=O (centres undefined) [THIOLACTONE] | 471
4 | N/C(=N\O)c1cc(O)cc(O)c1 | 589
5 | CCCCCCCCCCCCCCCC[N+](C)(C)CCCS(=O)(=O)[O-] | 65
6 | CC(C)NC(=N)NC(=N)Nc1ccc(Cl)cc1 [PROGUANIL] | 36
7 | CCn1cc(C(=O)O)c(=O)c2cc(F)c(N3CCNCC3)cc21 [NORFLOXACIN] | 75
8 | CC(C)[C@H](CO)Nc1nc(Nc2cccc(Cl)c2)c2ncn(C(C)C)c2n1 [PURVALANOLA] | 3
9 | CC[N+](CC)(CC)CCCCCCCC[N+](CC)(CC)CC | 1
10 | C[C@H]1[C@H](OC(=O)CCC(=O)O)O[C@@H]2O[C@@]3(C)CC[C@H]4[C@H](C)CC[C@@H]1[C@@]24OO3 [ARTESUNATE] | 3
11 | CC(=O)C(N)c1cc(O)c(O)c(O)c1 (centres undefined) | 301
12 | CC[C@H]1OC(=O)[C@H](C)[C@@H](O[C@H]2C[C@@](C)(OC)[C@@H](O)[C@H](C)O2)[C@H](C)[C@@H](O[C@@H]2O[C@H](C)C[C@H](N(C)C)[C@H]2O)[C@](C)(O)C[C@@H](C)C(=O)[C@H](C)[C@@H](O)[C@]1(C)O [ERYTHROMYCIN] | 18
13 | CCN(CC)Cc1cc(Nc2ccnc3cc(Cl)ccc23)ccc1O | 15
14 | CCCCCCOc1c(OC)cc(NC(C)CCCN)c2nccc(C)c12 (centres undefined) [WR-242511] | 8
15 | CCCCOc1ccc(NC(P(=O)(O)O)P(=O)(O)O)cc1 | 200
16 | CCCCCC(O)(P(=O)(O)O)P(=O)(O)O | 6
17 | C=C[C@H]1CN2CC[C@H]1C[C@H]2[C@H](O)c1ccnc2ccc(OC)cc12 [QUININE] | 54
18 | CCCCCCCCCC(O)(P(=O)(O)O)P(=O)(O)O | 1
19 | COc1cc(Cc2cnc(N)nc2N)ccc1OCc1cc(OC)c(OC)c(OC)c1 | 31
20 | CCCCCCCCCCC(O)(P(=O)(O)O)P(=O)(O)O | 200
21 | O=C(O)C1C2c3ccccc3C(c3ccccc32)C1CBr (centres undefined) | 40

Row | SMILES | IC50 [µM]
22 | OC(c1cc(C(F)(F)F)nc2c(C(F)(F)F)cccc12)C1CCCCN1 (centres undefined) [MEFLOQUINE] | 5
23 | Cc1nc2cnncc2n1-c1ccc(Cl)cc1C(=O)c1ccccc1Cl | 1
24 | O=C1C(O)=C([C@H]2CC[C@H](c3ccc(Cl)cc3)CC2)C(=O)c2ccccc21 [ATOVAQUONE] | 1
25 | CO[C@H]1O[C@@H]2O[C@@]3(C)CC[C@H]4[C@H](C)CC[C@@H]([C@H]1C)[C@@]24OO3 | 1000
26 | NC(=O)NO [HYDROXYUREA] | 792
27 | CN(C)c1ccc(O)c2c1C[C@H]1C[C@H]3[C@H](N(C)C)C(O)=C(C(N)=O)C(=O)[C@@]3(O)C(O)=C1C2=O [MINOCYCLINE] | 3
28 | O=C(NO)c1ccc(O)c(O)c1 | 16
29 | CC(C)NC(=N)NC(=N)Nc1ccc(Cl)c(Cl)c1 [CHLORPROGUANIL] | 9
30 | C=C/C(C)=C/[C@@]1(C)SC(=O)C(C)=C1O [THIOLACTOMYCIN] | 49
31 | Cc1cccc(NC(P(=O)(O)O)P(=O)(O)O)n1 | 200
32 | O=P(O)(O)C(NC1CCCC1)P(=O)(O)O [(CYCLOPENTYLAMINO)METHYLENEDIPHOSPHONIC ACID] | 200
33 | N=C(N)NCCCCCCCCCCNC(=N)N [SYNTHALIN] | 16
34 | C=C[C@H]1CN2CC[C@H]1C[C@H]2[C@H](O)c1ccnc2ccccc12 [CINCHONIDINE] | 27
35 | N/C(=N\O)c1ccc(O)c(O)c1 | 23
36 | CCCCCCCCCCCOCCOCCOCCOCCOCCO | 68
37 | NC(=O)C1C2c3ccccc3C(c3ccccc32)C1C(N)=O (single isomer, unassigned) | 42
38 | CC(C)=CCC/C(C)=C/CC/C(C)=C/C[C@@]1(C)SC(=O)C(C)=C1O [THIOLACTOMYCIN 7] | 8
39 | COc1cc(Cc2c(C)nc(N)nc2N)cc(OC)c1OC | 23
40 | O=P(O)(O)C(Nc1ccc(Cl)nc1)P(=O)(O)O | 200
41 | CC(=O)[C@H]1CC[C@H]2[C@@H]3CCC4=CC(=O)CC[C@]4(C)[C@H]3CC[C@]12C [PROGESTERONE] | 24
42 | CCCNC(=O)CC[C@@H](C)[C@H]1CC[C@H]2[C@@H]3[C@H](OC(C)=O)C[C@@H]4CC5(CC[C@]4(C)[C@H]3CC[C@]12C)OOC1(CCC(CC)CC1)OO5 (single isomer, unassigned; form 2) | 1

Other lines, results leading:

Row | IC50 [µM] | SMILES
43 | 4 | COc1ccc(Cc2cnc(N)nc2N)cc1OCc1ccccc1
44 | 18 | C[C@H]1c2cccc(O)c2C(=O)C2=C(O)[C@]3(O)C(=O)C(C(N)=O)=C(O)[C@@H](N(C)C)[C@@H]3[C@@H](O)[C@@H]21 [DOXYCYCLINE]
45 | 51 | CCN(CC)Cc1cc(Nc2ccnc3cc(Cl)ccc23)cc(-c2ccc(Cl)cc2)c1 [DEHYDROXY TEBAQUINE]
46 | 3 | Nc1ncc(Cc2cccc(OCc3ccccc3)c2)c(N)n1
47 | 3 | CC1(C)N=C(N)N=C(N)N1c1ccc(Cl)cc1 [CYCLOGUANIL]
48 | 2 | C/C=C1/CN2CC[C@]34c5ccccc5N5C(=O)C([C@H]6C[C@]78c9ccccc9N9C(=O)C=C[C@@H]([C@H]97)[C@H]7C[C@@H]8N6C/C7=C/C)=C[C@H]([C@H]53)[C@H]1C[C@H]24 [SUNGUCINE]
49 | 3 | Cn1cnc2c(NCc3ccccc3)nc(NCCO)nc21 [OLOMOUCINE]
50 | 17 | O=C1NC(=S)S/C1=C1\C(=O)Nc2ccccc21
51 | 17 | CC1C2c3ccccc3C(c3ccccc32)C1C[N+](C)(C)C (centres undefined)
52 | 3 | CN(C)CC1=C(CN(C)C)C2c3ccccc3C1c1ccccc12
53 | 3 | Nc1ncc(Cc2ccc(OCc3ccccc3)c(OCc3ccccc3)c2)c(N)n1
54 | 3 | Cc1ccc(C(=O)/C=C2\C(=O)Nc3ccc(Br)cc32)cc1
55 | 2 | C/C=C1/CN2CCc3c([nH]c4ccccc34)[C@@H]2C[C@@H]1Cc1nccc2c1[nH]c1ccccc12 [USAMBARENSINE]
56 | 3 | CCCOc1ccc(C2N=C(N)N=C(N)N2c2cccc(Cl)c2)cc1 (centres undefined)
57 | 5 | COc1cc(NC(C)CCCN)c2nccc(C)c2c1OCCCCCc1ccccc1C(F)(F)F (centres undefined)
58 | 4 | NC1=NC(c2cccc(Oc3ccc(Cl)cc3)c2)N(c2cccc(Cl)c2)C(N)=N1 (centres undefined)
59 | 2 | CC1(C)Oc2c(c3nc4ccccc4nc3c3ccccc23)CC1I (centres undefined)
60 | 1 | O=C1Nc2ccccc2/C1=C/C(=O)c1ccc(F)cc1
61 | 7 | NS(=O)(=O)c1ccc(Nc2c3ccc(Cl)cc3nc3cc(Cl)ccc23)cc1

Row | IC50 [µM] | SMILES
62 | 35 | NC(=O)C1=CC2c3ccccc3C1c1ccccc12
63 | 1 | c1cc(N2CCN(c3ccc(C4OCCO4)cc3)CC2)ccc1C1OCCO1
64 | 3 | O=C1Nc2ccc(Br)cc2/C1=C/C(=O)c1ccccc1
65 | 5 | CCc1nc(N)nc(N)c1Cc1ccc(OCc2ccccc2)c(OC)c1
66 | 22 | COc1cc(NC(C)CCCN)c2nccc(C)c2c1OCCCCCc1c(C)cccc1C (centres undefined)
67 | 1 | CN(C)c1ccc(Nc2c3ccccc3nc3cc(Cl)ccc23)cc1
68 | 16 | O=C1NC(=O)C(C(=O)Nc2ccc(Cl)cc2)c2ccccc21 (centres undefined) [TESICAM]
69 | 30 | CC1C2c3ccccc3C(c3ccccc32)C1CN (centres undefined)
70 | 1 | NC1=NC(c2ccccc2)N(c2cccc(Cl)c2)C(N)=N1 (centres undefined)
71 | 9 | CC(C)=CCc1c(O)c2ccccc2c2nc3ccccc3nc12
72 | 39 | COc1ccnc(C[S+]([O-])c2nc3cc(OC(F)F)ccc3[nH]2)c1OC (centres undefined) [PANTOPRAZOLE]
73 | 245 | CNCC(O)CC12CCC(c3ccccc31)c1ccccc12 (centres undefined) [OXAPROTILINE]
74 | 9 | CC1(C)Oc2c(c3nc4ccccc4nc3c3ccccc23)CC1Br (centres undefined)
75 | 53 | CC(C)(C)NCc1cc(Nc2ccnc3cc(Cl)ccc23)cc(-c2ccc(Cl)cc2)c1O [TEBUQUINE]
76 | 76 | COc1ccc2[nH]c([S+]([O-])Cc3ncc(C)c(OC)c3C)nc2c1 (centres undefined) [OMEPRAZOLE]
77 | 79 | CC1C2c3ccccc3C(c3ccccc32)C1C(=O)Nc1cccnc1 (centres undefined)
78 | 4 | O=C1Cc2c([nH]c3ccc([N+](=O)[O-])cc23)-c2ccccc2N1 [ALSTERPAULLONE]
79 | 52 | O=C(NCc1ccccc1)C1=CC2c3ccccc3C1c1ccccc12
80 | 6 | CN1CCN(CCCN2c3ccccc3Sc3ccc(C(F)(F)F)cc32)CC1 [TRIFLUOPERAZINE]

Row | IC50 [µM] | SMILES
81 | 32 | CN(C)C(=O)C1=CC2c3ccccc3C1c1ccccc12
82 | 37 | CC(=O)/C=C1\C(=O)Nc2ccccc21
83 | 41 | CCN(CC)Cc1cc(Nc2ccnc3cc(Cl)ccc23)cc(-c2ccc(Cl)cc2)c1F
84 | 1 | COc1ccc(Nc2c3ccc(N)cc3nc3cc(N)ccc23)cc1
85 | 3 | COc1cc(NC(C)CCCN)c2nccc(C)c2c1OCCCCCc1cccs1 (centres undefined)
86 | 1 | CO[C@H]1/C=C/O[C@@]2(C)Oc3c(C)c(O)c4c(O)c(c(/C=N/N5CCN(C)CC5)c(O)c4c3C2=O)NC(=O)/C(C)=C\C=C\[C@H](C)[C@H](O)[C@@H](C)[C@@H](O)[C@@H](C)[C@H](OC(C)=O)[C@@H]1C [RIFAMPIN]
87 | 21 | COc1cc(COc2ccc(Cc3cnc(N)nc3N)cc2)cc(OC)c1OC
88 | 1 | c1ccc(N2CCN(c3ccccc3)C2c2ccc(N3CCN(c4ccc(C5N(c6ccccc6)CCN5c5ccccc5)cc4)CC3)cc2)cc1
89 | 32 | CC1C2c3ccccc3C(c3ccccc32)C1C(N)=O (centres undefined)
90 | 174 | COc1cc(NC(C)CCCN)c2nccc(C)c2c1OCCCCc1ccccc1 (centres undefined)
91 | 41 | CCN(CC)CCCC(C)Nc1c2ccc(Cl)cc2nc2ccc(OC)cc12 (centres undefined) [QUINACRINE]
92 | 6 | CC1(C)Oc2c(c3nc4ccccc4nc3c3ccccc23)CC1S(=O)(=O)O (centres undefined)
93 | 17 | O=C1Nc2ccccc2/C1=C\c1c(Cl)cccc1Cl
94 | 57 | C/N=C/c1c(O)[nH]c2ccccc12
95 | 3 | Cc1nc(N)nc(N)c1Cc1ccc(OCc2ccccc2)c(OCc2ccccc2)c1
96 | 4 | O=C1Nc2ccccc2/C1=C\c1ccc(C(F)(F)F)cc1
97 | 15 | CCCCC1C(=O)N(c2ccccc2)N(c2ccc(O)cc2)C1=O (centres undefined) [OXYPHENBUTAZONE ANHYDROUS]
98 | 29 | Cc1c(O)noc1-c1ccccc1
99 | 20 | C=CCC1Cc2c(c3ccccc3c3nc4ccccc4nc23)OC1(C)C (centres undefined)
